Measured values from US9102648B1, “Bioavailable diacylhydrazine ligands for modulating the expression of exogenous genes via an ecdysone receptor complex” (Intrexon Corporation, priority 2003, dated 2015).
Converted amounts (≈) assume the structure as drawn. Read-outs that look alike come from different tables or passages of the source.

Tests used:
[1] = Bi-directional permeability, CACO-2; format: in vitro ADME
Procedure, shortened: (§1)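 Caco-2 monolayers on Transwell membranes dosed at 10 μM, apical or basolateral side, in HBSS with 10 mM HEPES, 15 mM glucose, pH 7.0±0.2; 37° C. Receiver sampled at 1 and 2 hours, quantified by LC/MS; duplicate determinations, monolayer integrity checked by Lucifer yellow flux.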

[2] = test system: Caco-2 monolayers; experiment: Bi-directional permeability, CACO-2; format: in vitro ADME
Procedure, shortened: as §1

[3] = Partition coefficient Log (D), 1-octanol / pH 7.4 buffer; format: physicochemical; details: water-saturated 1-octanol / pH 7.4 buffer, room temperature
Procedure, shortened: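 Octanol/pH 7.4 buffer partition at room temperature, compound added from 10 mM DMSO stock with 100 μM testosterone internal control; vortexed 60 min, centrifuged. Both layers diluted and quantified by LC/MS; Log D taken as log of the peak-area ratio.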

[4] = test system: mutated ecdysone receptor-based gene switch; experiment: In vivo SEAP induction, ligand administered in rodent chow; parameters: species or system C57BL/6 mouse; details: feed 2 g/kg ad libitum
Experimental: Applicants' ligands are useful in various applications including gene therapy, expression of proteins of interest in host cells, production of transgenic organisms, and cell-based assays. In vivo induction of a reporter enzyme with various ligands of the present invention was evaluated in a C57BL/6 mouse model system containing a gene switch.
Each element of the gene switch was on a separate plasmid. Receptor expression was under the control of a CMV promoter (SEQ ID NO: 15). Induction was evaluated by the amount of reporter protein expressed in the presence of ligand.
SEAP expression in serum of mice was evaluated after electroporation of the gene switch into mouse quadriceps. Mice were anesthetized with 2 μL/g of a mixture of ketamine (100 mg/mL) and xylazine (20 mg/mL). Animals were then shaved, DNA vectors injected into the muscle in a volume of 2×50 μL polyglutamic acid (12 mg/mL water), electrode conductivity gel applied, and an electrode caliber (1 cm×1 cm; model 384) was placed on hind leg. The muscle was electroporated with 200 V/cm, 8 times, for 20 msec/pulse, at 1 sec time intervals. The transverse electrical field direction was reversed after the animals received half of the pulses. Electroporation was performed with an ECM 830 electroporator from BTX Molecular Delivery Systems.
In some experiments mice received an intraperitoneal injection (IP) of 2.6 μmol of ligand in 50 μL of DMSO 3 days after electroporation of the gene switch. In other experiments the concentration of ligand was decrease to 26 nmol/50 μL of DMSO/mouse. SEAP expression was evaluated 2-11 days after ligand administration. In other experiments ligand was administered in rodent chow. The chow was prepared by dissolving 2 g of ligand in 20 mL of acetone and adding it to 1 kg of LabDiet 5010 autoclavable chow from Purina Mills. This was thoroughly mixed in a Hobart mixer and then mixed for an additional 15 min in a Cross Blend mixer. Animals received chow ad libitum for 1, 2, or 3 days. All values are the average from four animals. Background SEAP in sera from animals treated with vector alone without ligand addition was 0-11 ng/mL serum.
Mouse serum was obtained by centrifugation of blood acquired by retroorbital bleeding with a small glass capillary tube. SEAP quantification was determined using a Clontech Great Escape chemiluminescence kit and by comparison with the Clontech SEAP standard.
Table 11: Induction of SEAP in C57BL/6 mice with GS™-E ligand or RG-103309 administered in rodent chow. SEAP expression in serum of mice was evaluated after electroporation of the gene expression cassettes into mouse quadriceps. Mice received GS™-E ligand or RG-103309 in their feed (2 g/kg) 3 days after electroporation. Feed was administered ad libitum for 1, 2, or 3 days. After each interval ligand-treated feed was removed and animals received untreated feed. Values are the average from 4 animals.

[5] = physchem; details: water, kinetic from dmso stock
Experimental: Aqueous solutions are prepared as follows in triplicate: 50 μl of a 10,000 ppm solution (2,000 μg of solid dissolved in 200 μl of methanol) of the substrate in methanol or DMSO is added to 1 mL of de-ionized water in a 2 dram or smaller vial with magnetic stirring. Stirring is continued overnight at ambient temperature. The slurry is taken up into a syringe with a luer tip. The contents are passed through a new 13 mm 0.2 ρM Acrodisc filter (tuffryn or glass fiber) into an autosampler bottle. For preparation of calibration standard solutions: dilutions of the 10,000 ppm solution were prepared at 10, 5, 1, 0.5, and 0.2 ppm. […] For more soluble materials, dilution of the samples into this range is preferable to increasing the calibration range because the non-linearity of the response results in less useful calibration curves. However a shift in the range of calibration standards is required for very insoluble compounds.
Chromatography of the samples was then preformed. For most diacylhydrazines the following conditions were adequate for the measurement. Other columns and gradients may be substituted as appropriate.
Analysis of the test samples is conducted as follows: Each solubility replicate is analyzed in duplicate. […] Standard curves are obtained from duplicate injections of the standards. The concentration of the substrate is determined by calculation from the equation relating concentration and response.

[6] = physchem; details: pH 7.4, aqueous buffer, thermodynamic from solid
Experimental: Equilibrium solubility was measured in pH 7.4 aqueous buffer. The buffer was prepared by adjusting the pH of a 0.07 M solution of NaH2PO4 to pH 7.4 with 10 N NaOH. […] At least 1 mg of powder was combined with 1 mL of buffer to make >1 mg/mL mixture. These samples were shaken for ≧2 hours and left to stand overnight at room temperature. The samples were then filtered through a 0.45-μm Nylon syringe filter that was first saturated with the sample. The filtrate was sampled twice, consecutively. The filtrate was assayed by HPLC against standards prepared in methanol.

[7] = Caco-2, pH 7, cell-free (blank) membrane, 10 μM, read-out: Percent Recovery Blank
[8] = human, Caco-2, pH 7, Caco-2, apical-to-basolateral, 10 μM, read-out: Percent Recovery A-to-B
[9] = human, Caco-2, pH 7, Caco-2, basolateral-to-apical, 10 μM, read-out: Percent Recovery B-to-A
[10] = human, Caco-2, pH 7, Papp, A-to-B Avg
[11] = human, Caco-2, pH 7, Papp, A-to-B Rep. 1
[12] = human, Caco-2, pH 7, Papp, A-to-B Rep. 2
[13] = human, Caco-2, pH 7, Papp, B-to-A Avg
[14] = human, Caco-2, pH 7, Papp, B-to-A Rep. 1
[15] = human, Caco-2, pH 7, Papp, B-to-A Rep. 2

Compound	recovery at 2 h, 10 μM [1, 7] [%]	recovery at 2 h, 10 μM [1, 8] [%]	recovery at 2 h, 10 μM [1, 9] [%]	Log(D) Octanol/pH 7.4 [3]	Secreted Alkaline Phosphatase Day 2 ([4]; dose period 1 day)	Secreted Alkaline Phosphatase Day 3 ([4]; dose period 1 day)	Secreted Alkaline Phosphatase Day 7 ([4]; dose period 1 day)	Secreted Alkaline Phosphatase Day 2 ([4]; dose period 2 day)	Secreted Alkaline Phosphatase Day 3 ([4]; dose period 2 day)	Secreted Alkaline Phosphatase Day 7 ([4]; dose period 2 day)	Secreted Alkaline Phosphatase Day 2 ([4]; dose period 3 day)	Secreted Alkaline Phosphatase Day 3 ([4]; dose period 3 day)	Secreted Alkaline Phosphatase Day 7 ([4]; dose period 3 day)	Papp at 2 h, 10 µM ([1]; Caco-2, pH 7, Papp Blank) [×10⁻⁶ cm/s]	efflux ratio at 2 h, 10 μM ([1]; human, Caco-2, pH 7)	Papp A→B at 2 h, 10 µM [1, 10] [×10⁻⁶ cm/s]	Papp A→B at 2 h, 10 µM [1, 11] [×10⁻⁶ cm/s]	Papp A→B at 2 h, 10 µM [1, 12] [×10⁻⁶ cm/s]	Papp B→A at 2 h, 10 µM [1, 13] [×10⁻⁶ cm/s]	Papp B→A at 2 h, 10 µM [1, 14] [×10⁻⁶ cm/s]	further results
CCc1c(OC)cccc1C(=O)NN(C(=O)c1cc(C)cc(C)c1)C(C)(C)C [RG-102240, N-(3-methoxy-2-ethylbenzoyl)-N′-(3,5-dimethylbenzoyl)-N′-tert-butylhydrazine]	78	94	87	3.4	7,302 ng/ml mouse sera	7,670 ng/ml mouse sera	3,784 ng/ml mouse sera	13,046 ng/ml mouse sera	15,831 ng/ml mouse sera	8,816 ng/ml mouse sera	8,064 ng/ml mouse sera	11,392 ng/ml mouse sera	8,372 ng/ml mouse sera	–	–	–	–	–	–	–	Papp at 2 h, 10 µM ([1]; Caco-2, pH 7, cell-free (blank) membrane, 10 μM, read-out: Papp Blank): 28.4 ×10⁻⁶ cm/s; Papp A→B at 2 h, 10 µM ([1]; human, Caco-2, pH 7, Caco-2, 10 μM, average of 2 replicates, read-out: Papp, A-to-B Avg): 31.8 ×10⁻⁶ cm/s; Papp B→A at 2 h, 10 µM ([1]; human, Caco-2, pH 7, Caco-2, 10 μM, average of 2 replicates, read-out: Papp, B-to-A Avg): 23.5 ×10⁻⁶ cm/s; Papp A→B at 2 h, 10 µM ([1]; human, Caco-2, pH 7, Caco-2, 10 μM, replicate 1, read-out: Papp, A-to-B Rep. 1): 32.3 ×10⁻⁶ cm/s; Papp B→A at 2 h, 10 µM ([1]; human, Caco-2, pH 7, Caco-2, 10 μM, replicate 1, read-out: Papp, B-to-A Rep. 1): 23.3 ×10⁻⁶ cm/s; Papp A→B at 2 h, 10 µM ([1]; human, Caco-2, pH 7, Caco-2, 10 μM, replicate 2, read-out: Papp, A-to-B Rep. 2): 31.4 ×10⁻⁶ cm/s; Papp B→A at 2 h, 10 µM ([1]; human, Caco-2, pH 7, Caco-2, 10 μM, replicate 2, read-out: Papp, B-to-A Rep. 2): 23.7 ×10⁻⁶ cm/s; efflux ratio at 2 h, 10 μM ([1]; human, pH 7, Caco-2 efflux ratio, read-out: Papp B-A / Papp A-B Ratio): 0.7; Absorption Potential ([2]; classification from Papp(A-to-B)): High (Papp(A-to-B) ≧ 1.0 × 10^−6 cm/s High); Significant Efflux ([2]; classification from Papp(B-to-A) and ratio): No
Cc1cc(C)cc(C(=O)N(NC(=O)c2ccc3c(c2C)OCCO3)C(C)(C)C)c1 [RG-102317, N-(5-methyl-1,4-benzodioxan-6-carbonyl)-N′-(tert-butyl)-N′-(3,5-dimethylbenzoyl)hydrazine]	87	91	86	3.6	–	–	–	–	–	–	–	–	–	27.9	0.8	28	28.6	27.3	21.1	21	Papp B→A at 2 h, 10 µM [1, 15]: 21.2 ×10⁻⁶ cm/s; Significant Efflux ([2]; Caco-2): No; solubility kinetic [5]: 10.1 µM (≈ 4 µg/mL); solubility [6]: 4.3 µg/mL (≈ 10.8 µM)
CCC(N(NC(=O)c1cccc(C)c1C)C(=O)c1cc(C)cc(C)c1)C(C)(C)C (stereo not drawn) [RG-103309, 3,5-dimethyl-benzoic acid N′-(2,3-dimethyl-benzoyl)-N-(1-ethyl-2,2-dimethyl-propyl)-hydrazide]	–	–	–	3.0	9,003 ng/ml mouse sera	14,850 ng/ml mouse sera	5,172 ng/ml mouse sera	6,971 ng/ml mouse sera	16,518 ng/ml mouse sera	7,460 ng/ml mouse sera	11,126 ng/ml mouse sera	20,373 ng/ml mouse sera	11,549 ng/ml mouse sera	23.6	1.3	24.5	25.2	23.8	32.5	32.5	recovery at 2 h, 10 μM ([1]; Caco-2, pH 7, Percent Recovery Blank): 70%; Papp B→A at 2 h, 10 µM [1, 15]: 32.5 ×10⁻⁶ cm/s; recovery at 2 h, 10 μM ([1]; human, Caco-2, pH 7, Percent Recovery A-to-B): 74%; recovery at 2 h, 10 μM ([1]; human, Caco-2, pH 7, Percent Recovery B-to-A): 75%; Significant Efflux ([2]; Caco-2): No
